Measurements: patent publication US8178506B2, “Oligomeric compounds and compositions for use in modulation of small non-coding RNAs” (Regulus Therapeutics Inc., priority 2003, dated 2012)
In the oligonucleotide strings, read from the 5' end, every base follows the letter of its sugar. An asterisk marks phosphorothioate; unmarked linkages are phosphodiester. Other units and linkages are bracketed, terminal groups are in braces. A string of capitals states the bases alone. e = 2'-O-(2-methoxyethyl) (MOE); [5mC] = 5-methylcytosine; d = 2'-deoxy (DNA)

Tests used:
IGFBP-1 = IGFBP-1 mRNA expression in HepG2 cells; format: cell-based, human; conditions: for IGFBP1 mRNA expression: Experiment 2, insulin treated: HepG2 cells transfected with oligomeric compound, 1 nM insulin for four hours, UTC + 1 nM insulin = 100; for IGFBP1 mRNA: four hours, UTC = 100
[1] = tested on: BJ, B16-F10, T47D, T47Dp53 and HeLa cells; assay: Cell cycle assay (propidium iodide flow cytometry), cell line panel; format: cell-based; conditions: 150 nM oligomeric compound, 4.5 μg/ml LIPOFECTIN, after 72 hours, propidium iodide flow cytometry
[2] = Experiment 1, basal (no insulin), HepG2, 100 nM oligomeric compound
[3] = Experiment 2, 1 nM insulin treated, HepG2, 100 nM oligomeric compound
[4] = HepG2 cells, Experiment 1, basal (no insulin)
[5] = Experiment 3, basal (no insulin), HepG2 cells, 48 hours post-transfection
[6] = Experiment 4, insulin-sensitization: HepG2 cells treated with 1 nM insulin for four hours, 48 h post-transfection, mRNA by real-time PCR

327905 (antisense e[5mC]*eA*eG*eA*e[5mC]*eT*e[5mC]*e[5mC]*eG*eG*eT*eG*eG*eA*eA*eT*eG*eA*eA*eG*eG*eA) [compound 327905]
IGFBP-1 (% UTC) (IGFBP-1; [2]): 107 % UTC | IGFBP-1 (% UTC) (IGFBP-1; [3]): 115 % UTC | G1 (percentage of cells in phase of the cell cycle) [1]: 56.9% | G2/M (percentage of cells in phase of the cell cycle) [1]: 15% | S (percentage of cells in phase of the cell cycle) [1]: 28.1% | SubG1 (percentage of cells in phase of the cell cycle) [1]: 8.5% | aneuploid (percentage of cells) [1]: 14.7%

327922 (antisense eT*e[5mC]*eA*eG*eT*eT*eT*eT*eG*e[5mC]*eA*eT*eG*eG*eA*eT*eT*eT*eG*e[5mC]*eA*e[5mC]*eA) [compound 327922]
IGFBP-1 (% UTC) (IGFBP-1; [2]): 109 % UTC | IGFBP-1 (% UTC) (IGFBP-1; [3]): 104 % UTC | G1 (percentage of cells in phase of the cell cycle) [1]: 50.4% | G2/M (percentage of cells in phase of the cell cycle) [1]: 18.9% | S (percentage of cells in phase of the cell cycle) [1]: 30.7% | SubG1 (percentage of cells in phase of the cell cycle) [1]: 10% | aneuploid (percentage of cells) [1]: 16.8%

327919 (antisense eG*eA*eA*eA*e[5mC]*e[5mC]*e[5mC]*eA*eG*e[5mC]*eA*eG*eA*e[5mC]*eA*eA*eT*eG*eT*eA*eG*e[5mC]*eT) [compound 327919]
IGFBP-1 (% UTC) (IGFBP-1; [2]): 96 % UTC | IGFBP-1 (% UTC) (IGFBP-1; [3]): 154 % UTC | G1 (percentage of cells in phase of the cell cycle) [1]: 54.3% | G2/M (percentage of cells in phase of the cell cycle) [1]: 15.4% | S (percentage of cells in phase of the cell cycle) [1]: 30.3% | SubG1 (percentage of cells in phase of the cell cycle) [1]: 10.8% | aneuploid (percentage of cells) [1]: 16%

327933 (antisense eA*eA*eG*eG*eG*eA*eT*eT*e[5mC]*e[5mC]*eT*eG*eG*eG*eA*eA*eA*eA*e[5mC]*eT*eG*eG*eA*e[5mC]) [compound 327933]
IGFBP-1 (% UTC) (IGFBP-1; [2]): 125 % UTC | IGFBP-1 (% UTC) (IGFBP-1; [3]): 179 % UTC | G1 (percentage of cells in phase of the cell cycle) [1]: 49.6% | G2/M (percentage of cells in phase of the cell cycle) [1]: 19.1% | S (percentage of cells in phase of the cell cycle) [1]: 31.3% | SubG1 (percentage of cells in phase of the cell cycle) [1]: 10.2% | aneuploid (percentage of cells) [1]: 15.9%

327878 (antisense e[5mC]*eT*eA*eG*eT*eG*eG*eT*e[5mC]*e[5mC]*eT*eA*eA*eA*e[5mC]*eA*eT*eT*eT*e[5mC]*eA*e[5mC]) [compound 327878]
IGFBP-1 (% UTC) (IGFBP-1; [2]): 162 % UTC | IGFBP-1 (% UTC) (IGFBP-1; [3]): 185 % UTC | G1 (percentage of cells in phase of the cell cycle) [1]: 39.1% | G2/M (percentage of cells in phase of the cell cycle) [1]: 20% | S (percentage of cells in phase of the cell cycle) [1]: 40.8% | SubG1 (percentage of cells in phase of the cell cycle) [1]: 17.3% | aneuploid (percentage of cells) [1]: 11.9%

327911 (antisense eG*e[5mC]*eT*eA*e[5mC]*e[5mC]*eT*eG*e[5mC]*eA*e[5mC]*eT*eG*eT*eA*eA*eG*e[5mC]*eA*e[5mC]*eT*eT*eT*eT) [compound 327911]
IGFBP1 mRNA expression (IGFBP-1): 160 | IGFBP1 mRNA (IGFBP-1; [4]): 157 | G1 (percentage of cells in phase of the cell cycle) [1]: 49.9% | G2/M (percentage of cells in phase of the cell cycle) [1]: 20% | S (percentage of cells in phase of the cell cycle) [1]: 30.1% | SubG1 (percentage of cells in phase of the cell cycle) [1]: 10.9% | aneuploid (percentage of cells) [1]: 16.5%

328691 (e[5mC]*e[5mC]*e[5mC]*e[5mC]*eA*dT*d[5mC]*dT*dT*dA*dG*d[5mC]*dA*dT*d[5mC]*eT*eA*eA*eG*eG) [compound 328691]
IGFBP-1 (% UTC) (IGFBP-1; [5]): 105 % UTC | IGFBP-1 (% UTC) (IGFBP-1; [6]): 101 % UTC | G1 (percentage of cells in phase of the cell cycle) [1]: 60.5% | G2/M (percentage of cells in phase of the cell cycle) [1]: 15.1% | S (percentage of cells in phase of the cell cycle) [1]: 24.4% | SubG1 (percentage of cells in phase of the cell cycle) [1]: 7.7% | aneuploid (percentage of cells) [1]: 16.6%

327889 (antisense eG*eT*eG*eG*eT*eA*eA*eT*e[5mC]*e[5mC]*e[5mC]*eT*eG*eG*e[5mC]*eA*eA*eT*eG*eT*eG*eA*eT) [compound 327889]
IGFBP-1 (% UTC) (IGFBP-1; [2]): 56 % UTC | IGFBP-1 (% UTC) (IGFBP-1; [3]): 73 % UTC | G1 (percentage of cells in phase of the cell cycle) [1]: 53.1% | G2/M (percentage of cells in phase of the cell cycle) [1]: 14.4% | S (percentage of cells in phase of the cell cycle) [1]: 32.5% | SubG1 (percentage of cells in phase of the cell cycle) [1]: 8.2% | aneuploid (percentage of cells) [1]: 10.5%

328685 (e[5mC]*eG*eG*e[5mC]*e[5mC]*dG*dG*dA*dG*d[5mC]*d[5mC]*dA*dT*dA*dG*eA*e[5mC]*eT*e[5mC]*eG; antisense) [compound 328685]
IGFBP-1 (% UTC) (IGFBP-1; [5]): 157 % UTC | IGFBP-1 (% UTC) (IGFBP-1; [6]): 143 % UTC

327925 (antisense eT*eA*eG*e[5mC]*eT*eG*eG*eT*eT*eG*eA*eA*eG*eG*eG*eG*eA*e[5mC]*e[5mC]*eA*eA) [compound 327925]
IGFBP-1 (% UTC) (IGFBP-1; [2]): 152 % UTC | IGFBP-1 (% UTC) (IGFBP-1; [3]): 166 % UTC

327892 (antisense eA*e[5mC]*eT*eT*eT*e[5mC]*eG*eG*eT*eT*eA*eT*e[5mC]*eT*eA*eG*e[5mC]*eT*eT*eT*eA) [compound 327892]
IGFBP-1 (% UTC) (IGFBP-1; [2]): 108 % UTC | IGFBP-1 (% UTC) (IGFBP-1; [3]): 139 % UTC

338664 (antisense e[5mC]*eA*eG*eA*e[5mC]*eT*e[5mC]*e[5mC]*e[5mC]*eA*eA*e[5mC]*eT*eG*eA*e[5mC]*e[5mC]*eA*eG*eA) [compound 338664]
IGFBP-1 (% UTC) (IGFBP-1; [2]): 90 % UTC | IGFBP-1 (% UTC) (IGFBP-1; [3]): 100 % UTC

327913 (antisense eA*eA*e[5mC]*e[5mC]*eG*eA*eT*eT*eT*e[5mC]*eA*eA*eA*eT*eG*eG*eT*eG*e[5mC]*eT*eA*eG) [compound 327913]
IGFBP-1 (% UTC) (IGFBP-1; [2]): 123 % UTC | IGFBP-1 (% UTC) (IGFBP-1; [3]): 147 % UTC

327893 (antisense eA*eA*e[5mC]*e[5mC]*eA*e[5mC]*eA*e[5mC]*eA*eA*e[5mC]*e[5mC]*eT*eA*e[5mC]*eT*eA*e[5mC]*e[5mC]*eT*e[5mC]*eA) [compound 327893]
IGFBP1 mRNA (IGFBP-1; [4]): 107

341804 (antisense ATCTGCACTGTCAGCACTTT; all 2'-MOE, all phosphorothioate, methylation of C not given here) [compound 341804]
IGFBP1 mRNA (IGFBP-1; [4]): 162

328677 (eT*e[5mC]*e[5mC]*eT*eG*dG*dA*dT*dG*dA*dT*dA*dT*d[5mC]*dT*eA*e[5mC]*e[5mC]*eT*e[5mC]; antisense) [compound 328677]
IGFBP-1 (% UTC) (IGFBP-1; [5]): 208 % UTC | IGFBP-1 (% UTC) (IGFBP-1; [6]): 159 % UTC

327901 (antisense eT*eG*eA*eG*e[5mC]*eT*eA*e[5mC]*eA*eG*eT*eG*e[5mC]*eT*eT*e[5mC]*eA*eT*e[5mC]*eT*e[5mC]*eA) [compound 327901]
IGFBP-1 (% UTC) (IGFBP-1; [2]): 133 % UTC | IGFBP-1 (% UTC) (IGFBP-1; [3]): 135 % UTC | G1 (percentage of cells in phase of the cell cycle) [1]: 34.7% | G2/M (percentage of cells in phase of the cell cycle) [1]: 20.3% | S (percentage of cells in phase of the cell cycle) [1]: 44.9% | SubG1 (percentage of cells in phase of the cell cycle) [1]: 12% | aneuploid (percentage of cells) [1]: 13.6%

327890 (antisense eA*eG*e[5mC]*eA*e[5mC]*eA*eA*eA*e[5mC]*eT*eA*e[5mC]*eT*eA*e[5mC]*e[5mC]*eT*e[5mC]*eA) [compound 327890]
IGFBP-1 (% UTC) (IGFBP-1; [2]): 99 % UTC | IGFBP-1 (% UTC) (IGFBP-1; [3]): 88 % UTC

328114 (antisense eA*eA*eT*e[5mC]*eT*e[5mC]*eA*eT*eT*eT*eT*e[5mC]*eA*eT*eA*e[5mC]*eT*eT*eG*e[5mC]*eA) [compound 328114]
IGFBP1 mRNA expression (IGFBP-1): 177

327900 (antisense e[5mC]*eT*eG*e[5mC]*e[5mC]*eT*eG*eT*e[5mC]*eT*eG*eT*eG*e[5mC]*e[5mC]*eT*eG*e[5mC]*eT*eG*eT) [compound 327900]
IGFBP1 mRNA (IGFBP-1; [4]): 102

340927 (antisense eT*eG*eA*eG*e[5mC]*dT*dA*d[5mC]*dA*dG*dT*dG*d[5mC]*dT*dT*e[5mC]*eA*eT*e[5mC]*eT*e[5mC]*eA) [compound 340927]
IGFBP-1 (% UTC) (IGFBP-1; [2]): 201 % UTC | IGFBP-1 (% UTC) (IGFBP-1; [3]): 285 % UTC

327876 (antisense eA*eA*e[5mC]*eA*e[5mC]*eT*eG*eA*eT*eT*eT*e[5mC]*eA*eA*eA*eT*eG*eG*eT*eG*e[5mC]*eT*eA) [compound 327876]
IGFBP-1 (% UTC) (IGFBP-1; [2]): 93 % UTC | IGFBP-1 (% UTC) (IGFBP-1; [3]): 118 % UTC

327916 (antisense eT*eG*eG*e[5mC]*eA*eT*eT*e[5mC]*eA*e[5mC]*e[5mC]*eG*e[5mC]*eG*eT*eG*e[5mC]*e[5mC]*eT*eT*eA*eA) [compound 327916]
IGFBP1 mRNA expression (IGFBP-1): 128 | IGFBP1 mRNA (IGFBP-1; [4]): 102

341800 (antisense AAGCCCAAAAGGAGAAUUCUUUG; all 2'-MOE, all phosphorothioate, methylation of C and T or U not given here) [compound 341800]
IGFBP1 mRNA (IGFBP-1; [4]): 114
